Experimental data as given in patent US20140221301A1, “COMBINATION TREATMENT FOR CANCER” (priority 2011, published 2014).

What was measured:
Assay type in all cases: cell-based, human
[1] = tested on: TEX cells; experiment: ROS generation (DCF-DA, DHE) in TEX cells; conditions: time-points up to 24 hours
Method: (§1) FIG. 4. […] (A) Cells from TEX, OCI-AML2 and two primary AML patients were treated with increasing concentrations (2.5 μM and 5 μM) of tigecycline for 36 and 48 hours of tigecycline. Total proteins were extracted and analyzed by western blotting for Cox-1, Cox-2, Cox-4, grp78, XIAP, actin and tubulin. (B) TEX and AML patient cells were treated with increasing concentrations (2.5 μM and 5 μM) of tigecycline. Cox-1, Cox-2, and Cox-4 mRNA expression relative 18S was determined by quantitative RT-PCR. Data is shown as mean±SD. (C) TEX cells were treated with increasing concentrations of tigecycline and chloramphenicol (CAP) for 72 hours. Complex I, II and IV enzyme activity relative to citrate synthase activity was determined as described in materials and methods. (D) Cells from TEX, primary AML patients, and normal donors were treated with increasing concentrations of tigecycline. Mitochondrial membrane potential (ΔΨ) was determined by staining cells with JC-1 dye, and flow cytometry analysis (Red/Green ratio). Reactive oxygen species generation (ROS) was determined by staining with h2-DCFDA and Dihydroethidium (DHE).
A byproduct of the mitochondrial enzyme activities of the electron transport chain is the generation of reactive oxygen species (ROS). […] Therefore, the role of tigecycline on ROS generation in leukemia cells by analyzing hydrogen peroxide ions (H2O2) using a dichlorofluorescein dye (DCF-DA), and superoxide anions using dihydroethidium (DHE) was examined.

[2] = tested on: XIAP, grp78; experiment: Immunoblotting of cytosolic-ribosome translated proteins; conditions: TEX, OCI-AML2, primary AML cells
Method: as §1
Total cell lysates were prepared from cells as described previously^32. […] Protein concentrations were measured by the DC Protein assay. […]

[3] = tested on: normal hematopoietic cells from G-CSF mobilized normal donors; experiment: Mitochondrial membrane potential, JC-1, normal hematopoietic cells; conditions: normal cells from two G-CSF mobilized donors
Method: FIG. 4. Tigecycline decreases mitochondrial Cox-1 protein levels in TEX cells. (A) Cells from TEX, OCI-AML2 and two primary AML patients were treated with increasing concentrations (2.5 μM and 5 μM) of tigecycline for 36 and 48 hours of tigecycline. Total proteins were extracted and analyzed by western blotting for Cox-1, Cox-2, Cox-4, grp78, XIAP, actin and tubulin. (B) TEX and AML patient cells were treated with increasing concentrations (2.5 μM and 5 μM) of tigecycline. Cox-1, Cox-2, and Cox-4 mRNA expression relative 18S was determined by quantitative RT-PCR. Data is shown as mean±SD. […] Complex I, II and IV enzyme activity relative to citrate synthase activity was determined as described in materials and methods. […] Mitochondrial membrane potential (ΔΨ) was determined by staining cells with JC-1 dye, and flow cytometry analysis (Red/Green ratio). Reactive oxygen species generation (ROS) was determined by staining with h2-DCFDA and Dihydroethidium (DHE).
To measure mitochondrial membrane potential, cells were treated with tigecycline similarly as described above and then washed twice with PBS and incubated with 5 μM of 5,5′,6,6′-tetrachloro-1,1′,3,3′-tetraethyl benzimidazolylcarbocyanine iodide (JC-1, Sigma-Aldrich) for 20 minutes at 37° C. Each sample was then washed twice with 1 mL PBS and resuspended in 500 μL PBS prior to being read on a BD FACSCalibur. […]

[4] = tested on: primary AML patient samples; experiment: Cell viability by Annexin V staining, primary AML patient samples
Method: Cell growth and viability was assessed by the MTS assay (Promega, Madison, Wis.) according to the manufacturer's instructions. Apoptosis and cell death was measured by Annexin V-fluroscein isothiocyanate (FITC; Biovision Research Products, Mountain View, Calif.), propidium iodide staining and flow cytometry according to the manufacturer's instructions and as previously described^30.

**Q.** With CN(C)c1cc(NC(=O)CNC(C)(C)C)c(O)c2c1C[C@H]1C[C@H]3[C@H](N(C)C)C(O)=C(C(N)=O)C(=O)[C@@]3(O)C(O)=C1C2=O [tigecycline] as the compound, how does the ROS generation [1] read?
**A.** no observed increase

**Q.** And the “expression of XIAP or grp78” value [2]?
**A.** did not alter

**Q.** What about the “loss of mitochondrial membrane potential” value [3] of the same compound?
**A.** not seen

**Q.** What about the “relation of induced cytotoxicity to mitochondrial mass” value ([4]; AML samples, 5 μM and 10 μM, 48 hours) of the same compound?
**A.** correlates with increasing mitochondrial mass

**Q.** What about the LD50 ([4]; more resistant group of patients, n=7, 48 hours) of the same compound?
**A.** > 9 µM

**Q.** What about the LD50 ([4]; sensitive subset of leukemia patients, n=13, 48 hours) of the same compound?
**A.** 5 µM
